Laboratory results taken from patent US4263283A, “Method for prophylaxis and/or treatment of sickle cell disease” (Ferring Pharmaceuticals, Inc., priority 1980, dated 1981).

What was measured:
[1] = tested on: sickle cell disease
From the text: The patient was a person with sickle cell disease characterized by diffuse pain involving the spine, long bones and abdomen; an elevated serum bilirubin and leukocytosis (the former indicating at least temporary liver damage due to the disease); a reticulocyte count of about 15% (indicating formation of new red blood cells) and a hematocrit of 24-30% (below the normal level of 43-45%). Prior treatment included i.v. hydration, transfusion with packed red blood cells and i.v. narcotics to manage the pain.
Because of the increasing frequency and severity of sickling crises, they were treated with desmopressin to induce a state of chronic hypo-osmolalityof body fluids by combination with increasd oral fluid administration.

[2] = in vivo; cited from earlier work
[3] = desmopressin 40 mcg intranasally every 6 hours + hydrochlorothiazide 100 mg daily, fluid intake 4.3±0.15 l/day

Compound | pain and jaundice after regimen re-instated ([1]; after crisis signs on withdrawal) | period free of any signs or symptoms of sickle cell crisis ([1]; after re-instatement of the regimen) [months] | serum Na after regimen re-instated ([1]; decreased from 142 mM after re-instatement of desmopressin regimen) [mM] | serum Na level at plateau [1, 3] [mM] | urine osmolality at plateau [1, 3] [m Osm/kg] | time free of any signs of crisis ([1]; first period on the regimen) [days] | untoward side-effects of the induced hyponatremia (nausea, cramps, disturbances in central nervous function) ([1]; human, in vivo) | vascular or non-vascular smooth muscle side effects [2] | effect on attainment of hyponatremic state ([1]; 100 mg daily, added to desmopressin and fluid intake of 4-5 l. daily)
NC(=O)CC[C@@H]1NC(=O)[C@H](Cc2ccccc2)NC(=O)[C@H](Cc2ccc(O)cc2)NC(=O)CCSSC[C@@H](C(=O)N2CCC[C@H]2C(=O)N[C@H](CCCN=C(N)N)C(=O)NCC(N)=O)NC(=O)[C@H](CC(N)=O)NC1=O [desmopressin, 1-deamino-8-D-arginine vasopressin] | pain and jaundice abated | 6 | 127 | 125 | 344±13 | 54 | has not been associated with untoward side-effects | devoid of vascular or non-vascular smooth muscle side effects | –
NS(=O)(=O)c1cc2c(cc1Cl)NCNS2(=O)=O [Hydrochlorothiazide] | – | – | – | – | – | – | – | – | facilitated the attainment of a hyponatremic state
